Calls of active or inactive are those of the source.
Key:
[1] = general mammalian cell viability loss – inhibitor set, cherry-pick, set 2, cytotoxicity control for miR-122 modulator project, dose response (AID 720697); type: functional, cell-based
[2] = OVCAR8 cell viability loss – plate reader, dry powder samples, PAX8 project, dose response (AID 743197); type: functional, cell-based; details: OVCAR-8
[3] = IGROV1 cell killing – plate reader, dry powder samples, PAX8 inhibitor project, dose response (AID 743043); type: functional, cell-based; details: IGROV-1
[4] = activation of miR-122 Renilla sensor silencing – cell-based, Huh7 psiCHECK-miR122, Renilla luciferase, cherry-picked, dose response (AID 651956); type: functional;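 note: huh7 hepatoma cells stably carrying a psiCHECK-2 miR-122 sensor plasmid; renilla luciferase signal reporting endogenous miR-122 activity after 48 h compound exposure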
[5] = general mammalian cell viability loss – activator set, cherry-pick, cytotoxicity control for miR-122 modulator project, dose response (AID 720690); type: functional, cell-based;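 note: HEK293T human cells scored for general mammalian cytotoxicity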
Paired box protein Pax-8 = Paired box protein Pax-8 (Homo sapiens, UniProt Q06710); test: PAX8 transcriptional activity inhibition in RMG-I – RMG-I cells, luciferase, cherry-pick, dose response (AID 687027); type: functional, cell-based;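 note: luciferase reporter driven by Pax8 target thyroperoxidase promoter measured by SteadyGlo luminescence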
Chain of Paired box protein Pax-8 (Q06710 whole entry): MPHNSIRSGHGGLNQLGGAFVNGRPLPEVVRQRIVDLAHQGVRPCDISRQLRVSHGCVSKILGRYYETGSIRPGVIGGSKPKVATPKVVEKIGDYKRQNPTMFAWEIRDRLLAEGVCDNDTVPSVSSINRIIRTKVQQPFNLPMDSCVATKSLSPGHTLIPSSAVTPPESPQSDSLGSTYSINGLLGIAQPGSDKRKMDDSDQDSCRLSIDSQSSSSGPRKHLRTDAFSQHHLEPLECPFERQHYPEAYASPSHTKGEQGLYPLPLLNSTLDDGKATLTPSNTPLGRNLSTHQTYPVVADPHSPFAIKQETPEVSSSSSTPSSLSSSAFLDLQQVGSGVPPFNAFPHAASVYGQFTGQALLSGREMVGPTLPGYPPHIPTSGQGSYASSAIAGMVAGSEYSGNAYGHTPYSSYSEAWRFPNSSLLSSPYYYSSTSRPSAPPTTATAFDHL

[6] = Late stage assay provider results from the probe development effort to identify inhibitors of the Plasmodium falciparum M17 Leucine Aminopeptidase (M17LAP): radiolabel-based cell-based dose response assay to identify compounds that inhibit P. falciparum growth in RBCs Set 2.; type: functional
[7] = CMV-driven luciferase expression suppression in HEK293 – cell-based, luminescence, dry powder, counter-screen for Pax8 inhibitor project, dose response (AID 743020); type: functional
HeLa = test: viability loss in HeLa cells – cell-based, ATP luminescence, cherry-pick samples, cytotoxicity control, dose response (AID 687004); type: functional; details: Homo sapiens
[8] = A Cell-Based Confirmatory Screen for Compounds that Inhibit VEEV, TC-83 (8).; type: functional
[9] = A Cell-Based Confirmatory Screen for Compounds that Inhibit VEEV, TC-83 (6).; type: functional
[10] = biological target: Metabotropic glutamate receptor 3 (Rattus norvegicus, UniProt P31422); test: inhibition of rat mGlu3 glutamate signaling – HEK/GIRK cells, thallium flux, dose response (AID 651839); type: functional
Chain of Metabotropic glutamate receptor 3 (P31422 whole entry): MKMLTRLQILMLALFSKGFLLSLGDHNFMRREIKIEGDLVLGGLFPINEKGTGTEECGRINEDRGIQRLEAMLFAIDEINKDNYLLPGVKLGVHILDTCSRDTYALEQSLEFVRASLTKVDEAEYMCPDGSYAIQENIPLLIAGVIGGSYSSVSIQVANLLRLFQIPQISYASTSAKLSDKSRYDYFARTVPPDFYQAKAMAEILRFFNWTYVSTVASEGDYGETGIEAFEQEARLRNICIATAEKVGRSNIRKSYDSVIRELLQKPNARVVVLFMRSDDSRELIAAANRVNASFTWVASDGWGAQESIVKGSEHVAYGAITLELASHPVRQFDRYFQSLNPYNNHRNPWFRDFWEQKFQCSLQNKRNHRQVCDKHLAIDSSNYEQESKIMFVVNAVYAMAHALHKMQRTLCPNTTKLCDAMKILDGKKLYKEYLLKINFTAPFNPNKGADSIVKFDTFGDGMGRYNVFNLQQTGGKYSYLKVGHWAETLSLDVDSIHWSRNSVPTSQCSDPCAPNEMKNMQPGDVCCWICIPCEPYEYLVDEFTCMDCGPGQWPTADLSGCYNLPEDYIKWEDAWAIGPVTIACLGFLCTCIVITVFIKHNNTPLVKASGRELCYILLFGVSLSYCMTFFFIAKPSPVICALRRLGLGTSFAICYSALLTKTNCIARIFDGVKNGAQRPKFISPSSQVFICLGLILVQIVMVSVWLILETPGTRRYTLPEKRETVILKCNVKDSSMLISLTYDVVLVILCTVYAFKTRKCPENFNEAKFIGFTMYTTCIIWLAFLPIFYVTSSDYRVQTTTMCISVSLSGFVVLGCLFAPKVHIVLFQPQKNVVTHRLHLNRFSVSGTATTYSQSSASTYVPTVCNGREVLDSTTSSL

[11] = biological target: T1, High affinity choline transporter 1 (Homo sapiens, UniProt Q9GZV3); test: inhibition of SLC5A7-mediated choline transport – cell-based, HEK-293 hCHT, [3H]-choline uptake, dose response (AID 652177); type: functional
T1 sequence (Q9GZV3 whole entry): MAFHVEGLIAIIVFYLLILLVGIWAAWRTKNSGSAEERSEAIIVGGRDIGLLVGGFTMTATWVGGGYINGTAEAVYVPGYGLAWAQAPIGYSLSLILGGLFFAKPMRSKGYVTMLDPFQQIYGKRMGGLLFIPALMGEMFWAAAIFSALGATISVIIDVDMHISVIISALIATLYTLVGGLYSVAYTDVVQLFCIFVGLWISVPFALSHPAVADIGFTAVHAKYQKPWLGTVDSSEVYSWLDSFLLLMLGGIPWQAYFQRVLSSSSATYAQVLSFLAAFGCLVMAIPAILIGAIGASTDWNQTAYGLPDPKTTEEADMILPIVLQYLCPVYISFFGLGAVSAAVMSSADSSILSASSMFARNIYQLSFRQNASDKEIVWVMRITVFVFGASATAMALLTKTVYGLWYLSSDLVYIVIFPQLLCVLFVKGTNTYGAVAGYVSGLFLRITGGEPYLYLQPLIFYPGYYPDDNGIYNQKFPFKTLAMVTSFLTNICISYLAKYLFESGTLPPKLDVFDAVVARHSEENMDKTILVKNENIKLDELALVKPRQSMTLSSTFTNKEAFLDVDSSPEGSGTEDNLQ

[12] = NIH3T3 cell viability loss – ATP luminescence, mouse fibroblasts, counter-screen, dose response (AID 2010); type: functional, cell-based;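 note: cells exposed to compound for about 90 hours before reading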
[13] = Trypanosoma cruzi growth suppression in host cells – NIH3T3 host cells, beta-gal luminescence, confirmation (AID 2044); type: functional, cell-based;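 note: intracellular parasites grown in NIH/3T3 mouse fibroblasts as host cells; luminescent beta-galactosidase reporter signal from transgenic T. cruzi replicating inside host cells; inhibitors lower the luminescence signal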
[14] = Counterscreen for activators of the function of SWI/SNF related, matrix associated, actin dependent regulator of chromatin, subfamily a, member 2 (SMARCA2, BRM): Luminescence-based cell-based high throughput dose response assay to identify non-selective compounds using the VP16 reporter assay.; type: functional
[15] = HEK-293T viability loss after treatment – luminescence, T-cell screen hits, cytotoxicity control for TCR NF-kB inhibitor project, dose response (AID 489026); type: functional, cell-based;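 note: cells exposed to compound about 14 hours before the viability readout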

**Q.** Which results are given for `COc1ccc(CN(C)C[C@H]2OCCCC[C@H](C)Oc3ccc(NC(=O)Nc4ccc(C(F)(F)F)cc4)cc3C(=O)N([C@@H](C)CO)C[C@@H]2C)cc1`?
**A.** AC50 [1]: 11.3 µM (active); AC50 [2]: > 70 µM (inactive); AC50 [3]: 53.8 µM (active); AC50 [4]: 6.4 µM (active); AC50 [5]: 18.3 µM (active); AC50 (Paired box protein Pax-8): 8.38 µM (active)

**Q.** For `CCCCOc1ccc(C(=O)NO)cc1`, which IC50 [6] is on record?
**A.** 11.3 µM (inactive)

**Q.** Which AC50 (Paired box protein Pax-8) does the source give for `C[C@H](CO)N1C[C@H](C)[C@@H](CN(C)C(=O)Nc2cccc3ccccc23)OCCCC[C@H](C)Oc2ccc(NC(=O)c3ccncc3)cc2C1=O` here?
**A.** 3.61 µM (active)

**Q.** What about the AC50 [7] of the same compound?
**A.** 49.1 µM (active)

**Q.** Which AC50 (HeLa) does the source give for `CNC(=O)C[C@H]1CC[C@H]2[C@@H](COc3ccc(NC(=O)Nc4cccc(C#N)c4)cc3C(=O)N2C)O1` here?
**A.** 27.2 µM (active)

**Q.** Which IC50 [8] does the source give for `COc1ccc(-n2c(CN3CCNCC3)nc3ccc([N+](=O)[O-])cc3c2=O)cc1` here?
**A.** < 0.218 µM (active)

**Q.** What about the IC50 [9] of the same compound?
**A.** < 0.22 µM (active)

**Q.** For `COc1ccc(COc2ccc(C(=O)N3CCC[C@@H](CO)C3)cc2)cc1`, which IC50 [10] is on record?
**A.** 6.84 µM (active)

**Q.** Which IC50 [11] does the source give for `COc1ccc(C(=O)NCc2cc(C(C)C)no2)cc1OC1CCCN(C)C1` (centres undefined) here?
**A.** 1.25 µM (active)

**Q.** What does the source list for `Nc1nc(O)c2[nH]nnc2n1` [8-AZAGUANINE]?
**A.** EC50 (cells): 0.153 µM (active); EC50 [12]: 10.3 µM (active); EC50 [13]: < 0.1 µM (active); EC50 [14]: > 91.2 µM (inactive); IC50 [15]: > 80 µM (inactive)

From ChEMBL document CHEMBL1201862, “PubChem BioAssay data set” (2004)
